Assays:
[1] = biological target: Vascular endothelial growth factor receptor 2 (Homo sapiens) (UniProt P35968); conditions: 100 nM
Description: Inhibition of His-tagged human recombinant VEGFR2 (789 to 1356 residues) expressed in baculovirus using Fluorescein-Poly GT as substrate at 100 nM

[2] = biological target: T1, Tyrosine-protein kinase ABL1 (Homo sapiens, UniProt P00519); test: Inhibition of His-tagged full length human recombinant wild type ABL expressed in baculovirus using Fluorescein-Poly GT as substrate
[3] = biological target: CDK2/Cyclin A2 (Homo sapiens) (UniProt P24941+P20248); conditions: 100 nM
Description: Inhibition of CDK2/cyclinA (unknown origin) at 100 nM

[4] = biological target: Tyrosine-protein kinase Lyn (Homo sapiens, UniProt P07948); test: Inhibition of GST-tagged full length human recombinant LYNA expressed in baculovirus using Fluorescein-Poly GT as substrate
[5] = biological target: Serine/threonine-protein kinase D2 (Homo sapiens) (UniProt Q9BZL6); conditions: 100 nM
Description: Inhibition of GST-tagged full length human recombinant PKD2 expressed in baculovirus using Fluorescein-CREBtide as substrate at 100 nM

[6] = biological target: Receptor-type tyrosine-protein kinase FLT3 (Homo sapiens) (UniProt P36888); conditions: 100 nM
Description: Inhibition of His-tagged human recombinant FLT3 (564 to 958 residues) expressed in baculovirus using Fluorescein-Poly GT as substrate at 100 nM

[7] = biological target: Calcium/calmodulin-dependent protein kinase type II subunit delta (Homo sapiens) (UniProt Q13557); conditions: 100 nM
Chain of Calcium/calmodulin-dependent protein kinase type II subunit delta (Homo sapiens) (Q13557 whole entry): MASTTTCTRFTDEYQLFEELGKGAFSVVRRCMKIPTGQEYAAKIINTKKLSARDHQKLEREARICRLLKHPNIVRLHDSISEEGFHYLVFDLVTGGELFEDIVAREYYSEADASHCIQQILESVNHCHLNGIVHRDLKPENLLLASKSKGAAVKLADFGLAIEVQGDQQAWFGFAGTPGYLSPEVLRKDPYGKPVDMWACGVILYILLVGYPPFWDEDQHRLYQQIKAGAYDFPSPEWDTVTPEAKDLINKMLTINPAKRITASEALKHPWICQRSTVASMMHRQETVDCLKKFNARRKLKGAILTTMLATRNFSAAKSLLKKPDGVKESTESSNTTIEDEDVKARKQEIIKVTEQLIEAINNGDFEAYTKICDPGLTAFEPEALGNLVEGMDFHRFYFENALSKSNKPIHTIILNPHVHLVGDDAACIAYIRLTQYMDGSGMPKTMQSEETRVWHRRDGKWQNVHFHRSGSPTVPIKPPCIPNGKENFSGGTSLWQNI
Description: Inhibition of full length His-tagged human recombinant CaMK2 delta expressed in baculovirus using Fluorescein-CREBtide as substrate at 100 nM

[8] = biological target: Ephrin type-A receptor 4 (Homo sapiens) (UniProt P54764); conditions: 100 nM
Description: Inhibition of GST-tagged human recombinant EPHA4 (616 to 887 residues) expressed in baculovirus using Fluorescein-Poly GT as substrate at 100 nM

[9] = biological target: Tyrosine-protein kinase Mer (Homo sapiens) (UniProt Q12866); conditions: 100 nM
Description: Inhibition of GST-tagged human recombinant cMER expressed in baculovirus using Fluorescein-Poly GT as substrate at 100 nM

[10] = biological target: Inhibitor of nuclear factor kappa-B kinase subunit beta (Homo sapiens) (UniProt O14920); conditions: 100 nM
Chain of Inhibitor of nuclear factor kappa-B kinase subunit beta (Homo sapiens) (O14920 whole entry): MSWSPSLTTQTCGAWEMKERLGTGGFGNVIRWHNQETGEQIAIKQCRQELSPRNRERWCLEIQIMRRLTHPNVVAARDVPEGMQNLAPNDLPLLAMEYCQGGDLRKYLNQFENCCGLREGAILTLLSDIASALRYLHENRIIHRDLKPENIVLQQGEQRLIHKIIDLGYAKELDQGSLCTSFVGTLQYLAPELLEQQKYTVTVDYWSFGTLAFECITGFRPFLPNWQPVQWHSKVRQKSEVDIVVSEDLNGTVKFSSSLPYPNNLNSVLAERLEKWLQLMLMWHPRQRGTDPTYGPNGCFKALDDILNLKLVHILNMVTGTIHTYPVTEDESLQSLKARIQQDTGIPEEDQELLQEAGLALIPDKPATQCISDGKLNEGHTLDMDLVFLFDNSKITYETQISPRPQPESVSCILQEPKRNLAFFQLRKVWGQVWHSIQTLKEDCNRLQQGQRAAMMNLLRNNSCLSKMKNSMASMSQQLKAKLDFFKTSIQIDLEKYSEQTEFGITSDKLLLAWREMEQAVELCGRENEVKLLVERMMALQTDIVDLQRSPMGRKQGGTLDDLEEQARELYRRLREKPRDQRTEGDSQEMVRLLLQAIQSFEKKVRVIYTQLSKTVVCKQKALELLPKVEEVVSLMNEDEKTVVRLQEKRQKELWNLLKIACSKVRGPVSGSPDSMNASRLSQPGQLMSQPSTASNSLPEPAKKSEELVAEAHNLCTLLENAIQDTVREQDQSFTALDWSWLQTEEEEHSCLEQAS
Description: Inhibition of GST-tagged full length human recombinant IKKbeta expressed in baculovirus using Fluorescein-Poly GT as substrate at 100 nM

[11] = biological target: Tyrosine-protein kinase ZAP-70 (Homo sapiens) (UniProt P43403); conditions: 100 nM
Description: Inhibition of His-tagged full length human recombinant ZAP70 expressed in baculovirus using Fluorescein-Poly GT as substrate at 100 nM

[12] = biological target: Epidermal growth factor receptor (Homo sapiens, UniProt P00533); test: Inhibition of GST-tagged human recombinant EGFR (668 to1210 residues) expressed in baculovirus using Fluorescein-Poly GT as substrate
[13] = biological target: Fibroblast growth factor receptor 2 (Homo sapiens) (UniProt P21802); test: Inhibition of His-tagged human recombinant FGFR2 (403 to 822 residues) expressed in baculovirus using Fluorescein-Poly GT as substrate at 100 nM
[14] = biological target: Myotonin-protein kinase (Homo sapiens) (UniProt Q09013); conditions: 100 nM
Description: Inhibition of full length GST-tagged human recombinant DMPK expressed in baculovirus expression system at 100 nM

[15] = Antiproliferative activity against human PC3 cells after 72 hrs by MTT assay; assay type: functional, cell-based; conditions: PC-3, 72 h
[16] = Cmax in Swiss mouse plasma at 20 mg/kg, po by LC/MS/MS analysis; assay type: ADME, organism-based; set-up: dose 20 mg/kg, route oral
NCI-H1975 = test: Antiproliferative activity against human NCI-H1975 cells harboring EGFR L858R/T790M double mutant after 72 hrs by MTT assay; assay type: functional, cell-based; conditions: NCI-H1975, 72 h
[17] = biological target: Tyrosine-protein kinase Yes (Homo sapiens, UniProt P07947); test: Inhibition of GST-tagged full length human recombinant YES expressed in baculovirus using Fluorescein-Poly GT as substrate
Chain of Tyrosine-protein kinase Yes (P07947 whole entry): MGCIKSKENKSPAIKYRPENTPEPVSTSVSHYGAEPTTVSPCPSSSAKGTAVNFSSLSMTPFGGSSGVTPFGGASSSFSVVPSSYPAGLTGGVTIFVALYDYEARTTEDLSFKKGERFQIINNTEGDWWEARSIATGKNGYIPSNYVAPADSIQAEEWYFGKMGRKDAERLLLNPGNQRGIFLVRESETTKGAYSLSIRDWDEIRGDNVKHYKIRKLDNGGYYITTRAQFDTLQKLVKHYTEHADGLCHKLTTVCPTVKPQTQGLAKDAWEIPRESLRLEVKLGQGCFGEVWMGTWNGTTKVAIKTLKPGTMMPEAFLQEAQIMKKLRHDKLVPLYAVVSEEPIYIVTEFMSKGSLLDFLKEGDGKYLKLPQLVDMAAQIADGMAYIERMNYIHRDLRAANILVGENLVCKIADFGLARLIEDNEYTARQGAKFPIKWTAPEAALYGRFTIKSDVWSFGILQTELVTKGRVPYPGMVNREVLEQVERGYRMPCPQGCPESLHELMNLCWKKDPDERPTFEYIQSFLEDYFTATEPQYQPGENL

[18] = biological target: Tyrosine-protein kinase ABL1 (Homo sapiens, UniProt P00519, Y253F); test: Inhibition of His-tagged full length human recombinant ABL Y253F mutant expressed in baculovirus using Fluorescein-Poly GT as substrate
[19] = test system: Serine/threonine-protein kinase B-raf (Homo sapiens), P15056 [V600E]; test: Inhibition of full length GST-tagged human recombinant BRAF V600E mutant expressed in baculovirus using Fluorescein-MAP2K1 as substrate at 100 nM
[20] = biological target: Protein kinase C alpha type (Homo sapiens) (UniProt P17252); conditions: 100 nM
Description: Inhibition of full length human recombinant PKCalpha expressed in baculovirus using Fluorescein-PKC as substrate at 100 nM

HUVEC = test: Antiangiogenic activity in HUVEC after 72 hrs by MTT assay; assay type: functional, cell-based; conditions: Homo sapiens
hERG (KCNH2) = hERG (KCNH2) (Homo sapiens, UniProt Q12809); test: Inhibition of human ERG expressed in HEK293 cells at 30 uM by patch clamp assay; assay type: cell-based; conditions: HEK293 cells expressing human ERG
[21] = AUC(0 to infinity) in Swiss mouse plasma at 20 mg/kg, po by LC/MS/MS analysis; assay type: ADME, organism-based; set-up: dose 20 mg/kg, time infinity, route oral
[22] = biological target: T1, Tyrosine-protein kinase ABL1; test: Inhibition of His-tagged full length human recombinant wild type ABL expressed in baculovirus using Fluorescein-Poly GT as substrate at 100 nM
[23] = biological target: NUAK family SNF1-like kinase 1 (Homo sapiens) (UniProt O60285); conditions: 100 nM
Description: Inhibition of NUAK1 (unknown origin) at 100 nM

[24] = biological target: Platelet-derived growth factor receptor alpha (Homo sapiens, UniProt P16234); test: Inhibition of full length GST-tagged human recombinant PDGFRalpha expressed in baculovirus using Fluorescein-Poly GT as substrate at 100 nM
Chain of Platelet-derived growth factor receptor alpha (P16234 whole entry): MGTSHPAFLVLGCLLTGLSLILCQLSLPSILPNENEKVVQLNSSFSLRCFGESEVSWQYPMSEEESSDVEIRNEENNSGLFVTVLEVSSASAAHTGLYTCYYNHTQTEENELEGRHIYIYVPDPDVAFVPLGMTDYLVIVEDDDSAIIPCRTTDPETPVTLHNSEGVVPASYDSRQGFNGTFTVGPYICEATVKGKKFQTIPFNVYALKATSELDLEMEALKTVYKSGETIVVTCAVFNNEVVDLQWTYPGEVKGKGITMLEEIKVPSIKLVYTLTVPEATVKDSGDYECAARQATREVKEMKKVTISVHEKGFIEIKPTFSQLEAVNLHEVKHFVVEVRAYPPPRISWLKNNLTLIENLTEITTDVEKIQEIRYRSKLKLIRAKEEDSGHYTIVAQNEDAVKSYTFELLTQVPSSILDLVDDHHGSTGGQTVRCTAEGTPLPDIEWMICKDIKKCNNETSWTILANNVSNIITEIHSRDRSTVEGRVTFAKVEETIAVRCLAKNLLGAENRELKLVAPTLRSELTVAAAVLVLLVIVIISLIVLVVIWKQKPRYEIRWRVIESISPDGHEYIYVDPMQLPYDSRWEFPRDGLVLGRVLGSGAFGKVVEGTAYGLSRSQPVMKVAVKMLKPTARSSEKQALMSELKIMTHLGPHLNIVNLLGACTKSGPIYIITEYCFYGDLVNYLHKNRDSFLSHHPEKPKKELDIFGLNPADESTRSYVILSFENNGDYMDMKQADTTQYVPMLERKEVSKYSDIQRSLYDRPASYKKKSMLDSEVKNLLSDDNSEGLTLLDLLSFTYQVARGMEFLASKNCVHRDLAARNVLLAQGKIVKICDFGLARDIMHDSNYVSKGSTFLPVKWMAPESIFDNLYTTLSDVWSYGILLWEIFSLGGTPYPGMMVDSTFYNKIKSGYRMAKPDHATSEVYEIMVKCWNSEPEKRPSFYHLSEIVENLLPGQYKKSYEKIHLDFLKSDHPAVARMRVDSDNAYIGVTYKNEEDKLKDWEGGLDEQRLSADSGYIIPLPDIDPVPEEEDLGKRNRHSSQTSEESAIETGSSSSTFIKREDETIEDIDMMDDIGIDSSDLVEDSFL

[25] = biological target: Tyrosine-protein kinase HCK (Homo sapiens, UniProt P08631); test: Inhibition of GST-tagged full length human recombinant HCK expressed in baculovirus using Fluorescein-Poly GT as substrate at 100 nM
[26] = biological target: Tyrosine-protein kinase Fes/Fps (Homo sapiens) (UniProt P07332); conditions: 100 nM
Description: Inhibition of His-tagged full length human recombinant FES expressed in baculovirus using Fluorescein-Poly GT as substrate at 100 nM

[27] = biological target: MAP kinase-activated protein kinase 2 (Homo sapiens) (UniProt P49137); conditions: 100 nM
Description: Inhibition of His-tagged full length human recombinant MAPKAPK2 expressed in Escherichia coli using Fluorescein-CREBtide as substrate at 100 nM

[28] = biological target: Inhibitor of nuclear factor kappa-B kinase subunit alpha (Homo sapiens) (UniProt O15111); conditions: 100 nM
Chain of Inhibitor of nuclear factor kappa-B kinase subunit alpha (Homo sapiens) (O15111 whole entry): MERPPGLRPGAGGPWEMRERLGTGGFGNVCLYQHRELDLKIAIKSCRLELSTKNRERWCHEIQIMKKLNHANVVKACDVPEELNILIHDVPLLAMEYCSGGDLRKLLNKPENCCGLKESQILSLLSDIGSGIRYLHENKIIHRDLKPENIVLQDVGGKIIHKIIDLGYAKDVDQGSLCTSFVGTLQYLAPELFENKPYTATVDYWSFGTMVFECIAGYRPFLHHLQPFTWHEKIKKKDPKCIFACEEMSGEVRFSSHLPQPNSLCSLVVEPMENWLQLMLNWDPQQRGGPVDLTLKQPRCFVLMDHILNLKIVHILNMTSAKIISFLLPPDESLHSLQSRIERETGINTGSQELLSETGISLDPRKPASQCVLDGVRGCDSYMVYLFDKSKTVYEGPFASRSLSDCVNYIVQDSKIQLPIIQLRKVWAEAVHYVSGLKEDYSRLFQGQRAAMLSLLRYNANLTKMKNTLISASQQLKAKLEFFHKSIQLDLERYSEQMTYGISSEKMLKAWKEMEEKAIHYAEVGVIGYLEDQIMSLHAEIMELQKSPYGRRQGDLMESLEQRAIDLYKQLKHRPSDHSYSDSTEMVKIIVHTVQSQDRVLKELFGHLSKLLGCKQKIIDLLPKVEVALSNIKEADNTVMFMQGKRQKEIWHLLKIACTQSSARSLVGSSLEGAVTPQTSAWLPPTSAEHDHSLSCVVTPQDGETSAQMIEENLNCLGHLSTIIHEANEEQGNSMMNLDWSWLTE
Description: Inhibition of His-tagged full length human recombinant IKKalpha expressed in baculovirus using Fluorescein-IKK as substrate at 100 nM

[29] = biological target: Ribosomal protein S6 kinase beta-1 (Homo sapiens) (UniProt P23443); conditions: 100 nM
Description: Inhibition of GST-tagged human recombinant p70S6K (1 to 421 residues) expressed in baculovirus using Fluorescein-Crosstide as substrate at 100 nM

[30] = biological target: Tyrosine-protein kinase JAK2 (Homo sapiens) (UniProt O60674); conditions: 100 nM
Description: Inhibition of GST-tagged human recombinant JAK2 (809 to 1153 +9 residues) expressed in baculovirus using GFP-ST AT1 as substrate at 100 nM

[31] = biological target: RAC-beta serine/threonine-protein kinase (Homo sapiens) (UniProt P31751); conditions: 100 nM
Description: Inhibition of full length His-tagged human recombinant AKT2 expressed in baculovirus using Fluorescein-Crosstide as substrate at 100 nM

MDA-MB-231 = test: Antiproliferative activity against human MDA-MB-231 cells after 72 hrs by MTT assay; assay type: functional, cell-based; conditions: MDA-MB-231, 72 h
[32] = biological target: High affinity nerve growth factor receptor (Homo sapiens) (UniProt P04629); conditions: 100 nM
Description: Inhibition of His-tagged human recombinant TRKA (441 to 796 residues) expressed in baculovirus using Fluorescein-Poly GT as substrate at 100 nM

[33] = biological target: Angiopoietin-1 receptor (Homo sapiens) (UniProt Q02763); conditions: 100 nM
Description: Inhibition of GST-tagged human recombinant TIE2 (817 to 1101 residues) expressed in baculovirus using Fluorescein-Poly GT as substrate at 100 nM

Bcr/Abl fusion protein = Bcr/Abl fusion protein (Homo sapiens, UniProt P00519); assay type: cell-based, BaF3
Description: Inhibition of human wild type BCR-ABL expressed in mouse BAF3 cells assessed as inhibition of cell proliferation after 72 hrs by MTT assay

[34] = biological target: Tyrosine-protein kinase Fyn (Homo sapiens, UniProt P06241); conditions: 100 nM
Description: Inhibition of His-tagged full length human recombinant FYN expressed in baculovirus using Fluorescein-Poly GT as substrate at 100 nM

[35] = AUC(0 to infinity) in Swiss mouse plasma at 2 mg/kg, iv by LC/MS/MS analysis; assay type: ADME, organism-based; set-up: dose 2 mg/kg, route intravenous, time infinity
[36] = biological target: Tyrosine-protein kinase Tec (Homo sapiens) (UniProt P42680); conditions: 100 nM
Chain of Tyrosine-protein kinase Tec (Homo sapiens) (P42680 whole entry): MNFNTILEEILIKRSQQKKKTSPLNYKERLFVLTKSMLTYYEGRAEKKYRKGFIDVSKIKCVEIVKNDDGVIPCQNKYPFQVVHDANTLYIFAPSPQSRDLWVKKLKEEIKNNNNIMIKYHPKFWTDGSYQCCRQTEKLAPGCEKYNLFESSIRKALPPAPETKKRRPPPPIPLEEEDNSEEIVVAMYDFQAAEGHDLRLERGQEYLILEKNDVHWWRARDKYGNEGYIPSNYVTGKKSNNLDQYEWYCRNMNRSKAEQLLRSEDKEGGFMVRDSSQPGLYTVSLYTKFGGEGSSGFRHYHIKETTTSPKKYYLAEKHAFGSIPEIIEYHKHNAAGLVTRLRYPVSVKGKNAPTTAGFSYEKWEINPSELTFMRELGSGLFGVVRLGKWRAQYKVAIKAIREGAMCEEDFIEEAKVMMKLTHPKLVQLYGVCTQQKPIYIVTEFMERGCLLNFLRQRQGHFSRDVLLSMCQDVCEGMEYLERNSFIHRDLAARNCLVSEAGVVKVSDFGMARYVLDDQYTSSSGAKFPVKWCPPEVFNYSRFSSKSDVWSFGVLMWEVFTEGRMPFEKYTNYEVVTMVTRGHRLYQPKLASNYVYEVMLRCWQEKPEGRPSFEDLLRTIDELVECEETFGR
Description: Inhibition of His-tagged full length human recombinant TEC expressed in baculovirus using Fluorescein-Poly GT as substrate at 100 nM

**Q.** Which inhibition [1] does the source give for COC(=O)c1cc2cc(NCc3cc(NC(=O)c4cc(-n5cnc(C)c5)cc(C(F)(F)F)c4)ccc3C)cnc2[nH]1 here?
**A.** Its inhibition is less than 40%.

**Q.** What about the IC50 [2] of the same compound?
**A.** The IC50 was 6 nM.

**Q.** And the inhibition [3]?
**A.** Its inhibition is less than 40%.

**Q.** What about the IC50 [4] of the same compound?
**A.** Its IC50 is 37 nM.

**Q.** What about the inhibition [5] of the same compound?
**A.** The inhibition was less than 40%.

**Q.** And the inhibition [6]?
**A.** The inhibition was less than 40%.

**Q.** What about the inhibition [7] of the same compound?
**A.** Its inhibition is less than 40%.

**Q.** What about the inhibition [8] of the same compound?
**A.** Its inhibition is less than 40%.

**Q.** And the inhibition [9]?
**A.** Its inhibition is less than 40%.

**Q.** And the inhibition [10]?
**A.** Its inhibition is less than 40%.

**Q.** And the inhibition [11]?
**A.** Its inhibition is less than 40%.

**Q.** What about the IC50 [12] of the same compound?
**A.** Its IC50 is 15 nM.

**Q.** What about the inhibition [13] of the same compound?
**A.** The inhibition was 52%.

**Q.** What about the inhibition [14] of the same compound?
**A.** Its inhibition is less than 40%.

**Q.** And the EC50 [15]?
**A.** The EC50 was 152 nM.

**Q.** What about the Cmax [16] of the same compound?
**A.** The Cmax was 610 ng/mL.

**Q.** What about the EC50 (NCI-H1975) of the same compound?
**A.** Its EC50 is 104 nM.

**Q.** And the IC50 [17]?
**A.** Its IC50 is 44 nM.

**Q.** What about the IC50 [18] of the same compound?
**A.** Its IC50 is 51 nM.

**Q.** What about the inhibition [19] of the same compound?
**A.** Its inhibition is greater than 80%.

**Q.** What about the inhibition [20] of the same compound?
**A.** The inhibition was less than 40%.

**Q.** What about the EC50 (HUVEC) of the same compound?
**A.** Its EC50 is 34 nM.

**Q.** And the inhibition at 30 µM (hERG (KCNH2))?
**A.** Its inhibition at 30 µM is 26%.

**Q.** What about the AUC(0-inf) [21] of the same compound?
**A.** The AUC(0-inf) was 3030 ng·h/mL.

**Q.** What about the inhibition [22] of the same compound?
**A.** Its inhibition is greater than 80%.

**Q.** And the inhibition [23]?
**A.** The inhibition was less than 40%.

**Q.** And the inhibition [24]?
**A.** The inhibition was 68%.

**Q.** And the inhibition [25]?
**A.** The inhibition was greater than 80%.

**Q.** And the inhibition [26]?
**A.** The inhibition was less than 40%.

**Q.** What about the inhibition [27] of the same compound?
**A.** The inhibition was less than 40%.

**Q.** What about the inhibition [28] of the same compound?
**A.** The inhibition was less than 40%.

**Q.** And the inhibition [29]?
**A.** Its inhibition is less than 40%.

**Q.** And the inhibition [30]?
**A.** The inhibition was less than 40%.

**Q.** What about the inhibition [31] of the same compound?
**A.** Its inhibition is less than 40%.

**Q.** And the EC50 (MDA-MB-231)?
**A.** The EC50 was 158 nM.

**Q.** What about the inhibition [32] of the same compound?
**A.** The inhibition was less than 40%.

**Q.** And the inhibition [33]?
**A.** Its inhibition is less than 40%.

**Q.** And the EC50 (Bcr/Abl fusion protein)?
**A.** Its EC50 is 0.04 nM.

**Q.** What about the inhibition [34] of the same compound?
**A.** The inhibition was less than 40%.

**Q.** What about the AUC(0-inf) [35] of the same compound?
**A.** Its AUC(0-inf) is 558 ng·h/mL.

**Q.** And the inhibition [36]?
**A.** Its inhibition is less than 40%.

Source: ChEMBL document CHEMBL3808348, “Rational Design, Synthesis, and Biological Evaluation of 7-Azaindole Derivatives as Potent Focused Multi-Targeted Kinase Inhibitors” (J Med Chem, 2016)
